# Structures can show the parent of a compound that is named as a salt. Where two headings read alike, the source gives them in different places.
# Key:
# female CF1 S mice = test: Mouse spontaneous motor activity (activity cage); type: in vivo, mouse (CF1 S female); details: 0.5 h, Table 1, oral, mice, 30 minutes after dosing, read-out: Exploratory Loss Activity Cage ED50
# Protocol: Mouse Spontaneous Motor Activity (Activity Cage)
# Twenty-four per dose, 16- 20 g or 18-22 g, female CF1 S mice, fasted 16- 22 hours, are intubated (in pairs) with drug at t doses such as 0, 1, 3, 9, 27 and 81 mg/kg in 10 ml/kg of aqueous 1% methylcellulose. The mice are then put in separate "shoe-box" cages (12 × 7.5 × 5.3 inches plastic with a 0.33 inch mesh stainless steel lid), and 20 minutes after intubation the animals in pairs are moved to covered Woodard Photoelectric Activity Chambers (central light source type measurement floor area = 96 in^2). Ten minutes later (30 minutes after dosing) a 5-minute count is taken. Counting chamber characteristics are balanced out by counting 2 pairs of mice from each dose level in each of 6 different counting chambers. Half of each test is run in the a.m. and the other half is run in the p.m. to minimize "biological clock" variations.
# Canad. Biol. 20, 239-50 (1961), raw counts are thus transformed for statistical treatment (Student's t test). The means of the square roots then are squared and an ED50 for stimulation or depression (or both) is determined graphically.
# [1] = test system: phenylquinone-induced writhing; test: Phenylquinone writhing test (analgesia); type: in vivo, mouse (Carworth CF1 S female); details: Mus musculus, po
# Description: This mouse test is predictive of analgesic response in humans. [E. Siegmund, R. Cadmus and G. Lee, Proc. Soc.
# ED50 values were obtained graphically from the data.
# female white mice = test: animal or person; details: Mus musculus, po, oral, mice
# in vivo = details: mouse, in vivo, po
# [2] = read-out: Catatonia ED50, Table 1
# [3] = read-out: Exploratory Loss Visual ED50, Table 1
# [4] = read-out: Muscle Tone ED50, Table 1
# [5] = read-out: Reflexes Grip ED50, Table 1
# [6] = read-out: Reflexes Lift ED50, Table 1
# [7] = read-out: Reflexes Pinna ED50, Table 1
# [8] = read-out: Catatonia ED50, Table III
# [9] = read-out: Exploratory Loss Visual ED50, Table III
# [10] = read-out: Muscle Tone ED50, Table III
# [11] = read-out: Ptosis ED50, Table III
# [12] = read-out: Reflexes Grip ED50, Table III
# [13] = read-out: Reflexes Lift ED50, Table III
# [14] = read-out: Reflexes Pinna ED50, Table III
Compound,ED50 (female CF1 S mice) [mg/kg],"ED50 ([1]; Table 1, mice) [mg/kg]",ED50 (female white mice; [2]) [mg/kg],ED50 (female white mice; [3]) [mg/kg],ED50 (female white mice; [4]) [mg/kg],"ED50 (female white mice; read-out: Ptosis ED50, Table 1) [mg/kg]",ED50 (female white mice; [5]) [mg/kg],ED50 (female white mice; [6]) [mg/kg],ED50 (female white mice; [7]) [mg/kg],ED50 (in vivo) [mg/kg],LD50 at 24 h (in vivo) [mg/kg],"ED50 ([1]; Table III, mice) [mg/kg]",ED50 (female white mice; [8]) [mg/kg],ED50 (female white mice; [9]) [mg/kg],ED50 (female white mice; [10]) [mg/kg],ED50 (female white mice; [11]) [mg/kg],ED50 (female white mice; [12]) [mg/kg],ED50 (female white mice; [13]) [mg/kg],ED50 (female white mice; [14]) [mg/kg]
"c1ccc2c(c1)[C@@H]1C[C@@]3(CN(C[C@@H]4C[C@H]5CC[C@@H]4C5)C[C@H]23)c2ccccc21 (relative stereo) [Example 35, 2-(2-Exo-bicyclo[2.2.1]heptylmethyl)-2,3,8,12b-tetrahydro-1H-3a,8-methanodibenzo[3,4:6,7]cyclohepta[1,2-c]pyrrole]",3.3,6.2,15,8.6,12,5.1,> 324,29,21,> 324,> 324,–,–,–,–,–,–,–,–
"CCCCCCN1CC2c3ccccc3C3CC2(C1)c1ccccc13 (stereo not drawn) [Example 14, 2-n-Hexyl-2,3,8,12 b-tetrahydro-1H-3a,8-methanodibenzo[3,4:6,7]cyclohepta[1,2-c]pyrrole]",1.3,2.6,5.6,7,4.1,4.5,187,8.6,11,326,> 324,–,–,–,–,–,–,–,–
"CC(=NO)c1ccc2c(c1)[C@]13C[C@H]2c2ccccc2[C@H]1CN(CC1CCCC1)C3 (relative stereo) [Example 71, 5-Acetyl-2-cyclopentylmethyl-2,3,8,12b-tetrahydro-1H-3a,8-methanodibenzo[3,4:6,7]cyclohepta[1,2-c]pyrrole Oxime Hydrochloride]",–,–,–,–,–,–,–,–,–,–,> 324,21,100,7,36,< 4,300,60,20
"CCC(CC)CN1CC2c3ccccc3C3CC2(C1)c1ccccc13 (stereo not drawn) [Example 17, 2-(2-Ethylbutyl)-2,3,8,12b-tetrahydro-1H-3a,8-methanodibenzo[3,4:6,7]cyclohepta[1,2-c]pyrrole]",–,48,36,200,100,100,> 324,200,200,> 324,> 324,–,–,–,–,–,–,–,–
"FCc1ccc2c(c1)[C@]13C[C@H]2c2ccccc2[C@H]1CN(CC1CCCC1)C3 (relative stereo) [Example 87, 5-Fluoromethyl-2-cyclopentylmethyl-2,3,8,12b-tetrahydro-1H-3a,8-methanodibenzo[3,4:6,7]cyclohepta[1,2-c]-pyrrole Hydrochloride]",–,–,–,–,–,–,–,–,–,–,> 324,78,36,12,36,7,300,36,36
"C1=CC(CCN2CC3c4ccccc4C4CC3(C2)c2ccccc24)CC1 (stereo not drawn) [Example 23, 2-(2-Cyclopent-2-enylethyl)-2,3,8,12b-tetrahydro-1H-3a,8-methanodibenzo[3,4:6,7]cyclohepta[1,2-c]pyrrole]",–,15,37,57,37,46,265,88,62,> 324,> 324,–,–,–,–,–,–,–,–
"Nc1ccc2c(c1)[C@]13C[C@H]2c2ccccc2[C@H]1CN(CC1CCCC1)C3 (relative stereo) [Example 64, 5-Amino-2-cyclopentylmethyl-2,3,8,12b-tetrahydro-1H-3a, 8-methanodibenzo[3,4:6,7]cyclohepta[1,2-c]pyrrole Hydrochloride]",–,–,–,–,–,–,–,–,–,–,> 324,6.2,< 4,< 4,< 4,< 4,200,12,7
